Source: patent US4221781A, “Synergistic penicillin-cephalosporin compositions and methods” (priority 1971, dated 1980)
Read-outs that look alike come from different tables or passages of the source.

Columns and labels:
[1] = system: Klebsiella-Enterobacter (strain 4/71); test: Example 10: in vitro M.I.C. of II, cephalosporins and 1:1 combinations; format: cell-based
Method: (§1) Tryptose phosphate broth, containing the appropriate concentrations of the compounds or of the combination of them, was inoculated with 0.5×10^4 -5×10^4 organisms of the various microorganisms tested and incubated overnight at 37° C. Minimum inhibitory concentrations (M.I.C.) were taken as the concentrations of the compounds or of the combination at which no visible growth occurred.
(§2) Using the same technique as described in Example 1 the in vitro activity of 6-[(hexahydro-1H-azepin-1-yl)methyleneamino]penicillanic acid (II), of various cephalosporins previously mentioned in this specification, and of 1:1 combinations of II with these cephalosporins was determined against a clinically isolated strain of Klebsiella-Enterobacter (strain 4/71)

[2] = system: Proteus (Proteus Mirabilis I 190); test: Example 11: in vitro M.I.C. of II, cephalosporins and 1:1 combinations; format: cell-based
Method: as §1
as §2, with “cephalosporins” for “cephalosporins previously mentioned in this specification,”, “Proteus (Proteus Mirabilis I 190).” for “Klebsiella-Enterobacter (strain 4/71)”

Coliform = test: Example 1: in vitro M.I.C., serial dilution test, coliforms; format: cell-based; settings: 37° C overnight
Method: as §1

Proteus mirabilis = test: Example 1: in vitro M.I.C., serial dilution test, Proteus mirabilis; format: cell-based; settings: Proteus mirabilis strain 35895; 37° C overnight
Method: as §1

Proteus vulgaris = test: Example 1: in vitro M.I.C., serial dilution test, Proteus vulgaris; format: cell-based; settings: 37° C overnight, read-out: M.I.C.
Method: as §1

Proteus = test: Example 1: in vitro M.I.C., serial dilution test, Proteus; format: cell-based; settings: 37° C overnight, read-out: M.I.C.
Method: as §1

E.coli III = test: Example 3: in vivo activity, mean curative dose in mice infected with E.coli III; design: species or system female NMRI white mice; settings: Escherichia coli, sc, 96 h, subcutaneous, read-out: CD50 (mean curative dose)
Method: The number of deaths in the various groups were recorded after 96 hours and the mean curative doses (CD50) were calculated. (In the table, LD50 gives the dilution of an overnight culture of the organism causing a 50% death rate in animals receiving no therapy; the number of LD50 -doses records the severity of the infections given to the animals.)

[3] = system: clinically isolated coliform; test: Example 7: emergence of resistance, subculturing by serial twofold broth dilution; format: cell-based
Method: Subculturing using a serial twofold broth dilution technique was performed with 6-(D-α-aminophenylacetamido)-penicillanic acid (I), 6-[(hexahydro-1H-azepin-1-yl)methyleneamino]penicillanic acid (II), and a 1:1 combination of I and II. The strain used was a clinically isolated coliform. As inocula were used bacteria from the tube with the highest concentration of compound still permitting visible growth to the naked eye after incubation at 37° C. overnight. The following increases in MIC values were noted.

[4] = system: clinically isolated coliform bacterium; test: Example 5: in vitro M.I.C. of IV, various penicillins and 1:1 combinations; format: cell-based
Method: as §1
Using the same technique as described in Example 1 the in vitro activity of 6[(piperidyl-1)-methyleneamino]-penicillianic acid (IV), of various penicillins, and of 1:1 combinations of IV with these penicillins, was determined against a clinically isolated coliform bacterium.

[5] = Klebsiella-Enterobacter strain 4/71, read-out: M.I.C.
[6] = Proteus Mirabilis I 190, read-out: M.I.C.

Work on `[N-]=[N+]=NCC1=C(C(=O)O)N2C(=O)C(NC(=O)Cc3cccs3)C2SC1` (stereo not drawn) [EPC 821/4II] yielded an MIC [1, 5] of 100 µg/mL and an MIC [2, 6] of 12.5 µg/mL.
With `CC(=O)OCC1=C(C(=O)O)N2C(=O)[C@@H](NC(=O)Cc3cccs3)[C@H]2SC1` [VI, cephalotin] the MIC [1] was 50 µg/mL and the MIC [2] was 3.12 µg/mL.
`CC(=O)OCC1=C(C(=O)O)N2C(=O)C(NC(=O)Cc3cccc(Cl)c3)C2SC1` (stereo not drawn) [EPC 820/1b] was tested, and the MIC [1, 5] was > 100 µg/mL and the MIC [2, 6] was 50 µg/mL.
`CC1(C)S[C@@H]2[C@H](N=CN3CCCCCC3)C(=O)N2[C@H]1C(=O)O` [II, 6-[(hexahydro-1H-azepin-1-yl)methyleneamino]penicillanic acid] gave an MIC (Coliform; Coliform strain 3/70) of 12.5 µg/mL, an MIC (Coliform; Coliform strain 17/70) of 0.78 µg/mL and an MIC (Proteus mirabilis) of 0.78 µg/mL. It also gave an MIC (Proteus vulgaris; Proteus vulgaris A) of 0.19 µg/mL, an MIC (Proteus vulgaris; Proteus vulgaris B) of 1.56 µg/mL and an MIC (Proteus; Proteus strain 12/70) of 3.12 µg/mL. The MIC (Proteus; Proteus strain 13/70) was 3.12 µg/mL, the MIC (Proteus; Proteus strain 20/70) was > 100 µg/mL and the ED50 (E.coli III; LD50 1.5·10^-3, 6.6 LD50-doses given) was 2 mg/kg. The ED50 (E.coli III; LD50 8.1·10^-4, 1.2·10^4 LD50-doses given) was > 500 mg/kg, the MIC ([3]; passage 0) was 0.39 µg/mL and the MIC ([3]; passage 1) was 6.25 µg/mL. The MIC ([3]; passage 2) was 25 µg/mL, the MIC ([3]; passage 3) was 25 µg/mL and the MIC ([3]; passage 4) was 25 µg/mL. For the same molecule, the MIC ([3]; passage 5) was 25 µg/mL, the MIC ([3]; passage 7) was 25 µg/mL and the MIC ([3]; passage 8) was 25 µg/mL. For the same molecule, the MIC [1, 5] was > 100 µg/mL and the MIC [2, 6] was > 100 µg/mL.
In the case of `Cc1nnc(SCC2=C(C(=O)O)N3C(=O)[C@@H](NC(=O)Cn4cnnn4)[C@H]3SC2)s1` [Cephazoline], the MIC [1, 5] is reported as 12.5 µg/mL and the MIC [2, 6] is reported as 6.25 µg/mL.
`CC1=C(C(=O)O)N2C(=O)[C@@H](NC(=O)[C@H](N)c3ccccc3)[C@H]2SC1` [Cephalexine] showed an MIC [1, 5] of 50 µg/mL and an MIC [2, 6] of 25 µg/mL.
`CC(=O)OCC1=C(C(=O)O)N2C(=O)[C@@H](NC(=O)CC#N)[C@H]2SC1` [Cephacetrile] was tested, and the MIC [1, 5] was 50 µg/mL and the MIC [2, 6] was 12.5 µg/mL.
Molecule `CC1(C)S[C@@H]2[C@H](NC(=O)[C@H](N=[N+]=[N-])c3ccccc3)C(=O)N2[C@H]1C(=O)O` [6-(D-α-azidophenylacetamido)penicillanic acid] has an MIC [4] of 50 µg/mL.
